Laboratory results taken from ChEMBL document CHEMBL3784982, “Novel dihydropyrazole-chromen: Design and modulates hTERT inhibition proliferation of MGC-803” (Eur J Med Chem, 2016).
Activity calls are given as the source filed them. No cut-off for these calls is given here.

Assays:
[1] = Cytotoxicity against human L02 cells after 48 hrs by MTT assay; assay type: cell-based; conditions: L02, 48 h
MGC-803 = assay: Induction of cell cycle arrest in human MGC803 cells assessed as accumulation at G0/G1 phase at 1 uM after 48 hrs by propidium iodide staining-based flow cytometry (reference value: 32.7%); assay type: functional
[2] = target: Telomerase reverse transcriptase (Homo sapiens) (UniProt O14746); assay: Inhibition of human TERT expressed in human MGC803 cells assessed as TERT-regulated Wnt/beta-catenin signalling by measuring decrease in beta-catenin mRNA expression after 48 hrs by RT-PCR method; assay type: cell-based; conditions: MGC-803
Chain of Telomerase reverse transcriptase (Homo sapiens) (O14746 whole entry): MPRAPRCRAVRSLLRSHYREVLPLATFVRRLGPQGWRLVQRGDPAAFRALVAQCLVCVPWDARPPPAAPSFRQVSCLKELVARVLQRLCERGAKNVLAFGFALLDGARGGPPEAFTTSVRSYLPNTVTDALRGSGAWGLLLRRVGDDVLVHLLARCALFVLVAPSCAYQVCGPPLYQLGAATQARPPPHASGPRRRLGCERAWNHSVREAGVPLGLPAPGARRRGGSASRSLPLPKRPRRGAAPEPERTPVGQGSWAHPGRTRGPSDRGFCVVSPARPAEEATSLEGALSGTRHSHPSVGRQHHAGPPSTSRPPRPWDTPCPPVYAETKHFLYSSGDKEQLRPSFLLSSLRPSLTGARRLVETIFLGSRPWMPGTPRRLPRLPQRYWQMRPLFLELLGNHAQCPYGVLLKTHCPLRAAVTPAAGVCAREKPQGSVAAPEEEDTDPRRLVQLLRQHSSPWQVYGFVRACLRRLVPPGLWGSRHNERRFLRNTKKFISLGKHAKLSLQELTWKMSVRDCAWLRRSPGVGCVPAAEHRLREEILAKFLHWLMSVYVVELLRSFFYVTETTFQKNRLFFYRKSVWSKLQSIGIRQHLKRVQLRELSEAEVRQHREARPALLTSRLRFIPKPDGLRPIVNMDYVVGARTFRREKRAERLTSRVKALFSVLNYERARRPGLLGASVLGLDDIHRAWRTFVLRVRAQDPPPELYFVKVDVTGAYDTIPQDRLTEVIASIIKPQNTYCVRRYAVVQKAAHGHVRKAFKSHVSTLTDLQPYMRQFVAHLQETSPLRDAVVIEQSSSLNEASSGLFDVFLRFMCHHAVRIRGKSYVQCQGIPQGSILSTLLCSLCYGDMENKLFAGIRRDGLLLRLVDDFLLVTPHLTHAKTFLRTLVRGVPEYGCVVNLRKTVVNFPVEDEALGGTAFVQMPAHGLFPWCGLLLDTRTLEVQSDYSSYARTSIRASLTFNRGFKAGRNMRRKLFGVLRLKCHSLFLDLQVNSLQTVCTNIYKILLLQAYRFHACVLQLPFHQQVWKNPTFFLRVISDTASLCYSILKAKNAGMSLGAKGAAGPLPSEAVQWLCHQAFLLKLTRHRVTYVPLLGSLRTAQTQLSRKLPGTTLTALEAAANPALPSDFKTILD

[3] = target: Telomerase reverse transcriptase (Homo sapiens) (UniProt O14746); assay: Inhibition of human TERT-regulated Wnt/beta-catenin signalling in human MGC803 cells assessed as downregulation of cyclin D1 protein expression after 48 hrs by Western blotting method; assay type: cell-based; conditions: MGC-803
[4] = Antiproliferative activity against human PC3 cells after 48 hrs by MTT assay; assay type: functional, cell-based; conditions: PC-3, 48 h
[5] = Antiproliferative activity against human MGC803 cells after 48 hrs by MTT assay; assay type: functional, cell-based; conditions: MGC-803, 48 h
[6] = target: Telomerase reverse transcriptase (Homo sapiens) (UniProt O14746); assay: Inhibition of human TERT protein expression in human MGC803 cells at 1 uM after 48 hrs by Western blotting method; assay type: cell-based; conditions: MGC-803
[7] = target: Telomerase reverse transcriptase (Homo sapiens) (UniProt O14746); assay: Inhibition of human TERT expressed in human MGC803 cells assessed as TERT-regulated Wnt/beta-catenin signalling by measuring decrease in cyclin D1 protein expression after 48 hrs by Western blotting method; assay type: cell-based; conditions: MGC-803
[8] = target: Telomerase reverse transcriptase (Homo sapiens) (UniProt O14746); assay: Inhibition of human TERT expressed in human MGC803 cells assessed as TERT-regulated Wnt/beta-catenin signalling by measuring decrease in c-myc protein expression after 48 hrs by Western blotting method; assay type: cell-based; conditions: MGC-803
[9] = Cytotoxicity against human GES-1 cells after 48 hrs by MTT assay; assay type: cell-based; conditions: GES1, 48 h
[10] = target: Telomerase reverse transcriptase (Homo sapiens) (UniProt O14746); assay: Inhibition of human TERT-regulated Wnt/beta-catenin signalling in human MGC803 cells assessed as downregulation of cyclin D1 mRNA expression by RT-PCR method; assay type: cell-based; conditions: MGC-803
[11] = target: Telomerase reverse transcriptase (Homo sapiens) (UniProt O14746); assay: Inhibition of human TERT-regulated Wnt/beta-catenin signalling in human MGC803 cells assessed as downregulation of c-myc mRNA expression by RT-PCR method; assay type: cell-based; conditions: MGC-803
[12] = target: Telomerase reverse transcriptase (Homo sapiens) (UniProt O14746); assay: Inhibition of human TERT expressed in human MGC803 cells assessed as TERT-regulated Wnt/beta-catenin signalling by measuring decrease in c-myc mRNA expression after 48 hrs by RT-PCR method; assay type: cell-based; conditions: MGC-803
Bcap37 = assay: Antiproliferative activity against human Bcap37 cells after 48 hrs by MTT assay; assay type: functional, cell-based; conditions: Bcap37, 48 h
[13] = target: Telomerase reverse transcriptase (Homo sapiens) (UniProt O14746); assay: Inhibition of human TERT expressed in human MGC803 cells assessed as TERT-regulated Wnt/beta-catenin signalling by measuring decrease in cyclin D1 mRNA expression after 48 hrs by RT-PCR method; assay type: cell-based; conditions: MGC-803
[14] = target: Telomerase reverse transcriptase (Homo sapiens) (UniProt O14746); assay: Inhibition of human TERT-regulated Wnt/beta-catenin signalling in human MGC803 cells assessed as downregulation of beta-catenin mRNA expression by RT-PCR method; assay type: cell-based; conditions: MGC-803
[15] = target: Telomerase reverse transcriptase (Homo sapiens) (UniProt O14746); assay: Inhibition of human TERT-regulated Wnt/beta-catenin signalling in human MGC803 cells assessed as downregulation of c-myc protein expression after 48 hrs by Western blotting method; assay type: cell-based; conditions: MGC-803
[16] = target: Telomerase reverse transcriptase (Homo sapiens) (UniProt O14746); assay: Inhibition of human TERT-regulated Wnt/beta-catenin signalling in human MGC803 cells assessed as downregulation of beta-catenin protein expression after 48 hrs by Western blotting method; assay type: cell-based; conditions: MGC-803
[17] = Antiproliferative activity against human SGC7901 cells after 48 hrs by MTT assay; assay type: functional, cell-based; conditions: SGC-7901, 48 h
[18] = target: Telomerase reverse transcriptase (Homo sapiens) (UniProt O14746); assay: Inhibition of human TERT expressed in human MGC803 cells assessed as TERT-regulated Wnt/beta-catenin signalling by measuring decrease in beta-catenin protein expression after 48 hrs by Western blotting method; assay type: cell-based; conditions: MGC-803
[19] = target: Telomerase reverse transcriptase (Homo sapiens) (UniProt O14746); assay: Inhibition of human TERT protein expression in human MGC803 cells at […] after 48 hrs by Western blotting method; assay type: cell-based; conditions: MGC-803
[20] = target: Telomerase reverse transcriptase (Homo sapiens) (UniProt O14746); assay: Inhibition of human TERT-regulated Wnt/beta-catenin signalling in human MGC803 cells assessed as decrease in cyclin-D1 mRNA expression at […] after 48 hrs by RT-PCR method; assay type: cell-based; conditions: MGC-803
[21] = target: Telomerase reverse transcriptase (Homo sapiens) (UniProt O14746); assay: Inhibition of human TERT-regulated Wnt/beta-catenin signalling in human MGC803 cells assessed as decrease in c-myc protein expression at […] after 48 hrs by Western blotting method; assay type: cell-based; conditions: MGC-803
[22] = target: Telomerase reverse transcriptase (Homo sapiens) (UniProt O14746); assay: Inhibition of human TERT-regulated Wnt/beta-catenin signalling in human MGC803 cells assessed as decrease in c-myc mRNA expression at […] after 48 hrs by RT-PCR method; assay type: cell-based; conditions: MGC-803
[23] = target: Telomerase reverse transcriptase (Homo sapiens) (UniProt O14746); assay: Inhibition of human TERT-regulated Wnt/beta-catenin signalling in human MGC803 cells assessed as decrease in beta-catenin mRNA expression at […] after 48 hrs by RT-PCR method; assay type: cell-based; conditions: MGC-803
[24] = target: Telomerase reverse transcriptase (Homo sapiens) (UniProt O14746); assay: Inhibition of human TERT-regulated Wnt/beta-catenin signalling in human MGC803 cells assessed as decrease in beta-catenin protein expression at […] after 48 hrs by Western blotting method; assay type: cell-based; conditions: MGC-803
[25] = Inhibition of human TERT mRNA expression in human MGC803 cells at […] after 48 hrs by RT-PCR method; assay type: functional, cell-based; conditions: MGC-803
[26] = target: Telomerase reverse transcriptase (Homo sapiens) (UniProt O14746); assay: Inhibition of human TERT-regulated Wnt/beta-catenin signalling in human MGC803 cells assessed as decrease in cyclin D1 protein expression at […] after 48 hrs by Western blotting method; assay type: cell-based; conditions: MGC-803
[27] = Inhibition of human TERT mRNA expression in human MGC803 cells at 40 umol/L measured at 48 hrs by RT-PCR method; assay type: functional, cell-based; conditions: MGC-803
[28] = target: Telomerase reverse transcriptase (Homo sapiens) (UniProt O14746); assay: Inhibition of human TERT-regulated Wnt/beta-catenin signalling in human MGC803 cells assessed as decrease in beta-catenin mRNA expression at 40 umol/L measured at 48 hrs by RT-PCR method; assay type: cell-based; conditions: MGC-803
[29] = target: Telomerase reverse transcriptase (Homo sapiens) (UniProt O14746); assay: Inhibition of human TERT-regulated Wnt/beta-catenin signalling in human MGC803 cells assessed as decrease in c-myc protein expression at 40 umol/L measured at 48 hrs by Western blotting method; assay type: cell-based; conditions: MGC-803
[30] = target: Telomerase reverse transcriptase (Homo sapiens) (UniProt O14746); assay: Inhibition of human TERT-regulated Wnt/beta-catenin signalling in human MGC803 cells assessed as decrease in c-myc mRNA expression at 40 umol/L measured at 48 hrs by RT-PCR method; assay type: cell-based; conditions: MGC-803
[31] = target: Telomerase reverse transcriptase (Homo sapiens) (UniProt O14746); assay: Inhibition of human TERT-regulated Wnt/beta-catenin signalling in human MGC803 cells assessed as decrease in cyclin D1 mRNA expression at 40 umol/L measured at 48 hrs by RT-PCR method; assay type: cell-based; conditions: MGC-803
[32] = target: Telomerase reverse transcriptase (Homo sapiens) (UniProt O14746); assay: Inhibition of human TERT-regulated Wnt/beta-catenin signalling in human MGC803 cells assessed as decrease in cyclin D1 protein expression at 40 umol/L measured at 48 hrs by Western blotting method; assay type: cell-based; conditions: MGC-803
[33] = target: Telomerase reverse transcriptase (Homo sapiens) (UniProt O14746); assay: Inhibition of human TERT protein expression in human MGC803 cells at 40 umol/L measured at 48 hrs by Western blotting method; assay type: cell-based; conditions: MGC-803
[34] = target: Telomerase reverse transcriptase (Homo sapiens) (UniProt O14746); assay: Inhibition of human TERT-regulated Wnt/beta-catenin signalling in human MGC803 cells assessed as decrease in beta-catenin protein expression at 40 umol/L measured at 48 hrs by Western blotting method; assay type: cell-based; conditions: MGC-803

O=C(CN1CCCCC1)N1N=C(c2ccccc2)CC1c1cc2ccccc2oc1=O (stereo not given)
IC50 [1]: 2500 µM | Activity (MGC-803): 50.6% | inhibition [2]: Active | inhibition [3]: Active | IC50 [4]: 4.12 µM | IC50 [5]: 1.41 µM | inhibition [6]: Active | inhibition [7]: Active | inhibition [8]: Active | IC50 [9]: 2300 µM | inhibition [10]: Active | inhibition [11]: Active | inhibition [12]: Active | IC50 (Bcap37): 5.3 µM | inhibition [13]: Active | inhibition [14]: Active | inhibition [15]: Active | inhibition [16]: Active | IC50 [17]: 0.46 µM | inhibition [18]: Active

Cc1cn([C@H]2C[C@H](N=[N+]=[N-])[C@@H](CO)O2)c(=O)[nH]c1=O
inhibition [19]: Active | inhibition [20]: Active | inhibition [21]: Active | inhibition [22]: Active | inhibition [23]: Active | inhibition [24]: Active | inhibition [25]: Active | inhibition [26]: Active

COc1cccc2c1C(=O)c1c(O)c3c(c(O)c1C2=O)C[C@@](O)(C(=O)CO)C[C@@H]3O[C@H]1C[C@H](N)[C@H](O)[C@H](C)O1 [DOXORUBICIN]
IC50 [4]: 1.49 µM | IC50 [5]: 1.01 µM | IC50 (Bcap37): 1.19 µM | IC50 [17]: 0.8 µM

CCc1ccc(-c2nc(CSCC(=O)NCCc3ccccc3)c(C)o2)cc1
inhibition [27]: Active | inhibition [28]: Active | inhibition [29]: Active | inhibition [30]: Active | inhibition [31]: Active | inhibition [32]: Active | inhibition [33]: Active | inhibition [34]: Active
